# Values of other authors in Sander's compilation of Henry's law constants (doi:10.2175/wer.65.7.2).
# Assay: Henry solubility constant Hcp at 293 K (mol/(m3 Pa))
# Conditions: reference: Smith et al. (1993); cited value
row,SMILES,Henry solubility constant Hcp at 293 K
1,c1ccccc1 [benzene],0.0018
2,Cc1ccccc1 [methylbenzene],0.0017

# Assay: Henry solubility constant Hcp at 294 K (mol/(m3 Pa))
# Conditions: reference: Smith et al. (1993); cited value
row,SMILES,Henry solubility constant Hcp at 294 K
1,c1ccc2c(c1)ccc1ccccc12 [phenanthrene],0.25

# Assay: Henry solubility constant Hcp at 298.15 K (mol/(m3 Pa))
# Conditions: reference: Smith et al. (1993); cited value
row,SMILES,Henry solubility constant Hcp
1,"Cc1ccc(O)c(C)c1 [1-hydroxy-2,4-dimethylbenzene]",0.58
2,"c1ccc2c(c1)Cc1ccccc1-2 [2,3-benzindene]",0.084
3,c1cc2c3c(cccc3c1)CC2 [acenaphthene],0.041
4,C1=Cc2cccc3cccc1c23 [acenaphthylene],0.087
5,c1ccc2cc3ccccc3cc2c1 [anthracene],0.11
6,c1ccc2c(c1)cc1ccc3cccc4ccc2c1c34 [benzo[a]pyrene],20
7,c1ccc2c(c1)-c1cccc3c1c-2cc1ccccc13 [benzo[b]fluoranthene],0.83
8,c1cc2ccc3ccc4ccc5cccc6c(c1)c2c3c4c56 [benzo[ghi]perylene],180
9,c1ccc2c(c1)-c1cccc3cccc-2c13 [benzo[jk]fluorene],1.5
10,c1ccc2cc3c(cc2c1)-c1cccc2cccc-3c12 [benzo[k]fluoranthene],0.25
11,c1ccc2c(c1)ccc1c3ccccc3ccc21 [chrysene],9.4
12,"c1ccc2c(c1)ccc1cc3c(ccc4ccccc43)cc12 [dibenz[a,h]anthracene]",140
13,"c1ccc2c(c1)-c1ccc3ccc4cccc5cc-2c1c3c45 [indeno[1,2,3-cd]pyrene]",140
14,c1ccc2ccccc2c1 [naphthalene],0.02
